Test results taken from patent US6238873A, “Methods of screening for agonists and antagonists of the interaction between the human KIAA0001 receptor and ligands thereof” (Smithkline Beecham Corporation, priority 1999, dated 2001).

Columns and labels:
human KIAA0001 receptor [1] = target: T1, human KIAA0001 receptor (Homo sapiens, UniProt Q15391); assay: Specificity of response: nucleotide di-phosphate sugar spotted onto agar plate infused with yeast carrying human KIAA0001 receptor and FUS1-LacZ reporter; type: cell-based; settings: 10 nmoles (1 microliter of 10 mM solution) spotted onto agar plate
T1 sequence (Q15391 1-338): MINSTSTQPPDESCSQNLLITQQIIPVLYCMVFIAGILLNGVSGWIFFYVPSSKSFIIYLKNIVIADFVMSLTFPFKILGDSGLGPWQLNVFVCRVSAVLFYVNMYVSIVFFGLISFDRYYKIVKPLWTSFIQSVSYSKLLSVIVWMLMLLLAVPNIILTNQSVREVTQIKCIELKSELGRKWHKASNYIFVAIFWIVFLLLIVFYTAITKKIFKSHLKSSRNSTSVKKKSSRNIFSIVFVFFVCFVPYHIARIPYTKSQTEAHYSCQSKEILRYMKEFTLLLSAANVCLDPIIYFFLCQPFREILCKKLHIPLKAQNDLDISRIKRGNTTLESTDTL
Method: The specificity of this response was determined by spotting 10 nmoles (1 microliter of 10 mM solution) of each nucleotide di-phosphate sugar onto an agar plate infused with a yeast strain carrying the human KIAA0001 receptor and the FUS1-LacZ reporter, as described above.

human KIAA0001 receptor [2] = target: T1, human KIAA0001 receptor; settings: FUS1-LacZ yeast expressing human KIAA0001 receptor

response on agar plate (FUS1-LacZ reporter) (human KIAA0001 receptor [1]) | response determined by expression of -galactosidase (human KIAA0001 receptor [2]) | Compound
failed to produce a response |  | Nc1ncnc2c1ncn2[C@@H]1O[C@H](COP(=O)(O)OP(=O)(O)O[C@H]2O[C@H](CO)[C@@H](O)[C@H](O)[C@H]2O)[C@@H](O)[C@H]1O [ADP-glucose]
failed to produce a response |  | Nc1ncnc2c1ncn2[C@@H]1O[C@H](COP(=O)(O)OP(=O)(O)OC[C@H]2OC(O)[C@H](O)[C@@H]2O)[C@@H](O)[C@H]1O (stereo partly drawn) [ADP-ribose]
failed to produce a response |  | Nc1ccn([C@@H]2O[C@H](COP(=O)(O)OP(=O)(O)O[C@H]3O[C@H](CO)[C@@H](O)[C@H](O)[C@H]3O)[C@@H](O)[C@H]2O)c(=O)n1 [CDP-glucose]
failed to produce a response |  | C[C@@H]1O[C@H](OP(=O)(O)OP(=O)(O)OC[C@H]2O[C@@H](n3cnc4c(=O)[nH]c(N)nc43)[C@H](O)[C@@H]2O)[C@@H](O)[C@H](O)[C@@H]1O [GDP-fucose]
failed to produce a response |  | Nc1nc2c(ncn2[C@@H]2O[C@H](COP(=O)(O)OP(=O)(O)O[C@H]3O[C@H](CO)[C@@H](O)[C@H](O)[C@H]3O)[C@@H](O)[C@H]2O)c(=O)[nH]1 [GDP-glucose]
failed to produce a response |  | Nc1nc2c(ncn2[C@@H]2O[C@H](COP(=O)(O)OP(=O)(O)O[C@H]3O[C@H](CO)[C@@H](O)[C@H](O)[C@@H]3O)[C@@H](O)[C@H]2O)c(=O)[nH]1 [GDP-mannose]
positive response | receptor-dependentresponse | CC(=O)N[C@H]1[C@@H](OP(=O)(O)OP(=O)(O)OC[C@H]2O[C@@H](n3ccc(=O)[nH]c3=O)[C@H](O)[C@@H]2O)O[C@H](CO)[C@@H](O)[C@@H]1O [UDP-N-acetyl glucosamine]
positive response | receptor-dependentresponse | O=C(O)[C@H]1O[C@H](OP(=O)(O)OP(=O)(O)OC[C@H]2O[C@@H](n3ccc(=O)[nH]c3=O)[C@H](O)[C@@H]2O)[C@H](O)[C@@H](O)[C@@H]1O [UDP-glucuronic acid]

Compound | response on agar plate (FUS1-LacZ reporter) (human KIAA0001 receptor [1]) | response determined by expression of -galactosidase (human KIAA0001 receptor [2])
Nc1ncnc2c1ncn2[C@@H]1O[C@H](COP(=O)(O)OP(=O)(O)O[C@H]2O[C@H](CO)[C@@H](O)[C@H](O)[C@@H]2O)[C@@H](O)[C@H]1O [ADP-mannose] | failed to produce a response | 
Cc1cn([C@H]2C[C@H](O)[C@@H](COP(=O)(O)OP(=O)(O)O[C@H]3O[C@H](CO)[C@@H](O)[C@H](O)[C@H]3O)O2)c(=O)[nH]c1=O [TDP-glucose] | failed to produce a response | 
